Test results: US7989464B2, “mGluR1 antagonists as therapeutic agents” (Schering Corporation, priority 2004, dated 2011)
Read-outs that look alike come from different tables or passages of the source.

Target: T1, hmGluR1 receptor (Homo sapiens, UniProt Q13255)
T1 construct: expressed in transfected cells
Test: IC50 determination: intracellular calcium mobilization (FLIPR) upon Quisqualate stimulation in CHO cells stably expressing hmGluR1
Assay type: cell-based
Settings: against Quisqualate 1 μM (EC80)
In short: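 CHO cells stably expressing hmGluR1 were kept overnight in DMEM high glucose with GPT and 1 mM pyruvate, then loaded 2 h with Calcium 3 dye.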

[1] = FLIPR calcium mobilization, read-out: IC50 Class
[2] = class symbols, read-out: mGIuR 1 IC50
[3] = FLIPR calcium mobilization, read-out: mGluR1 IC50

T1 sequence (Q13255 19-1194): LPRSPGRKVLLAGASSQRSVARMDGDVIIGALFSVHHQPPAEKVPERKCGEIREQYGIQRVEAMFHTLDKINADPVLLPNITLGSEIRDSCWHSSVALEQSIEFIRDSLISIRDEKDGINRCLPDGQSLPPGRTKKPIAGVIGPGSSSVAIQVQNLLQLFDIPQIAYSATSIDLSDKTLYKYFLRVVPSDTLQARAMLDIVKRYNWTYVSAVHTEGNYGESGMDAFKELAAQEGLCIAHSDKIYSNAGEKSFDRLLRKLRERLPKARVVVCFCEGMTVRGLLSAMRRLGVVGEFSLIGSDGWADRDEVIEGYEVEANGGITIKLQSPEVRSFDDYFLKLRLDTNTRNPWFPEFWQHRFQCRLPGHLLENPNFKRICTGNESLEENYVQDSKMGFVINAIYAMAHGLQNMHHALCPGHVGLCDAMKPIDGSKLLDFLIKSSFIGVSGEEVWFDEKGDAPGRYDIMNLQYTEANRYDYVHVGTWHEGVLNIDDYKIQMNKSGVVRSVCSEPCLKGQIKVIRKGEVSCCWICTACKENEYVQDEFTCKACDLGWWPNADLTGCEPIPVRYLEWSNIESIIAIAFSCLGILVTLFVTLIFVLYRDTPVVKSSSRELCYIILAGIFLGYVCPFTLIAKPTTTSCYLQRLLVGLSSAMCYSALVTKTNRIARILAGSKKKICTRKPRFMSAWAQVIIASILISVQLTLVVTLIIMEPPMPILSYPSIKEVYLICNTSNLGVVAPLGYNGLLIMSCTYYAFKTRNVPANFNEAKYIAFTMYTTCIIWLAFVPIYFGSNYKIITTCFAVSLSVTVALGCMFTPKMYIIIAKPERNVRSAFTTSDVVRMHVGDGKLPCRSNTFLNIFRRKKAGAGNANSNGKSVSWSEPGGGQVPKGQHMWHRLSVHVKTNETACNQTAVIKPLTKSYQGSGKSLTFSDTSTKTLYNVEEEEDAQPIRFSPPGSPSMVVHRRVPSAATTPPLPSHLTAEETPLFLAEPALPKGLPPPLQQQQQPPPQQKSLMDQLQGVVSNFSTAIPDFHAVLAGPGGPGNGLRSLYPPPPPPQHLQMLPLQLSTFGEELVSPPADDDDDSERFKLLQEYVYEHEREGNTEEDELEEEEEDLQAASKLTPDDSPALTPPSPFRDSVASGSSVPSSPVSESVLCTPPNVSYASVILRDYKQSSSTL

SMILES | IC50 [1] [nM] | IC50 [2] [nM] | other results
CCNc1ccnc2sc3c(=O)n(-c4ccc5occc5c4)cnc3c12 [28BG] | < 50 |  | 
CCNc1ccnc2sc3c(=O)n(-c4ccc5c(c4)OCCO5)cnc3c12 [28BY] | < 50 |  | 
CN(C)c1cncc2sc3c(=O)n(C4CCCCC4)cnc3c12 [37A] |  | 150 to 1000 | 
O=c1c2sc3nccc(NCCO)c3c2ncn1C1CCCCC1 [28AG] |  | 50 to 150 | 
O=c1c2sc3nccc(N4CCC(O)CC4)c3c2ncn1C1CCCCC1 [28AF] |  | > 1000 | 
O=c1c2sc3nccc(N4CCC[C@H]4CO)c3c2ncn1-c1ccc(Cl)cc1 [28GM] | > 1000 |  | 
Cc1cc(N(C)C)c2c(n1)sc1c(=O)n(-c3ccc4c(c3)CCO4)cnc12 [7CN] |  | 50 to 150 | 
CC#CCNc1ccnc2sc3c(=O)n(-c4ccc(C)cc4)cnc3c12 [28AD] |  | 50 to 150 | 
C=CCNc1ccnc2sc3c(=O)n(-c4ccc(OC)cc4)cnc3c12 [28DS] | < 50 |  | IC50 [3]: 1.95 nM
C#CCN(C)c1ccnc2sc3c(=O)n(-c4ccc(Cl)cc4)cnc3c12 [28DX] | < 50 |  | 
CN(C)c1ccnc2sc3c(=O)n(-c4nnc(C(F)(F)F)s4)cnc3c12 [15AF] |  | 150 to 1000 | 
COc1ccc(-n2cnc3c(sc4nccc(NCC5CC5)c43)c2=O)cc1 [28AX] |  | 150 to 1000 | 
COc1ccc(-n2cnc3c(sc4nc(N)cc(N(C)C)c43)c2=O)cc1 [59F] | < 50 |  | 
CN(C)c1ccnc2sc3c(=O)n(CCN4CCCCC4)cnc3c12 [15O] |  | > 1000 | 
CNc1ccnc2sc3c(=O)n(-c4ccc(C)cc4)cnc3c12 [28AI] |  | < 50 | IC50 [3]: 1.27 nM
COc1cc(-n2cnc3c(sc4nccc(N(C)C)c43)c2=O)ccc1F [28FW] | 150 to 1000 |  | 
Cc1ccc(-n2cnc3c(sc4nccc(N(C)C)c43)c2=O)cc1 [7BF] |  | < 50 | 
Cc1ccc(-n2cnc3c(sc4nccc(C(N)=O)c43)c2=O)cc1 [compound 76] |  | > 1000 | 
CN(CC(O)CO)c1ccnc2sc3c(=O)n(-c4ccc(F)cc4)cnc3c12 (stereo not drawn) [28HR] | 150 to 1000 |  | 
CN(C)c1ccnc2sc3c(=O)n(-c4ccc(CO)cc4)cnc3c12 [7AY] |  | < 50 | 
CCN(C)c1ccnc2sc3c(=O)n(-c4ccc(C)cc4)cnc3c12 [28AK] |  | < 50 | 
CN(C)c1ccnc2sc3c(=O)n(-c4cccc(Cl)c4)cnc3c12 [7L] |  | < 50 | 
COc1ccc(-n2cnc3c(sc4nccc(C(C)C)c43)c2=O)cc1 [29H] | < 50 |  | 

SMILES | IC50 [1] [nM] | IC50 [2] [nM] | other results
CCNc1ccnc2sc3c(=O)n(-c4ccc(F)cc4)cnc3c12 [28HY] | < 50 |  | 
CCCCNc1ccnc2sc3c(=O)n(C4CCCCC4)cnc3c12 [28R] |  | 150 to 1000 | 
COc1ccc(-n2cnc3c(sc4nccc(NCC(F)(F)F)c43)c2=O)cc1 [28AW] |  | < 50 | 
Cc1ccc(-n2cnc3c(sc4nccc(NC5CCOCC5)c43)c2=O)cc1 [28DG] | 150 to 1000 |  | 
O=c1c2sc3nccc(C4CC4)c3c2ncn1-c1ccc(Cl)cc1 [compound 187] | < 50 |  | 
COCCNc1ccnc2sc3c(=O)n(-c4ccc(Cl)cc4)cnc3c12 [28GK] | < 50 |  | 
CCc1ccc(-n2cnc3c(sc4nccc(OC)c43)c2=O)cc1 [25G] | 150 to 1000 |  | 
CCNc1ccnc2sc3c(=O)n(-c4ccc(Cl)cc4)cnc3c12 [28HZ] | < 50 |  | IC50 [3]: 1.22 nM
O=c1c2sc3nccc(Cl)c3c2ncn1-c1ccccc1 [compound 13] |  | 150 to 1000 | 
CN(C)c1ccnc2sc3c(=O)n(-c4ccsc4)cnc3c12 [15AA] |  | < 50 | 
COc1ccc(-c2c(C(C)=O)c(C)nc3sc4c(=O)n(-c5ccc(C)cc5)cnc4c23)cc1 [P-10] |  | 150 to 1000 | 
CN(CCO)c1ccnc2sc3c(=O)n(-c4ccc5c(c4)OCCO5)cnc3c12 [28CF] | < 50 |  | 
O=c1c2sc3nccc(NC4CC4)c3c2ncn1-c1ccc(Cl)cc1 [28HF] | < 50 |  | 
O=c1c2sc3nccc(N4CCC[C@@H]4CO)c3c2ncn1-c1ccc(Cl)cc1 [28GI] | > 1000 |  | 
CN(CCO)c1ccnc2sc3c(=O)n(-c4ccc(F)cc4)cnc3c12 [28HH] | 50 to 150 |  | 
COc1ccc(-n2cnc3c(sc4nccc(Nc5ccccc5)c43)c2=O)cc1 [28G] |  | 150 to 1000 | 
COc1cc(O)nc2sc3c(=O)n(C4CCCCC4)cnc3c12 [compound 80] |  | > 1000 | 
CCCn1cnc2c(sc3nccc(N(C)C)c32)c1=O [15L] |  | > 1000 | 
C=C(C)CNc1ccnc2sc3c(=O)n(-c4ccc(Cl)cc4)cnc3c12 [28FD] | < 50 |  | 
CC1CCC(n2cnc3c(sc4nccc(N(C)C)c43)c2=O)CC1 (stereo not drawn) [15Z] |  | < 50 | 
CCc1ccnc2sc3c(=O)n(-c4ccc(OC)cc4)cnc3c12 [29I] | < 50 |  | 
CNc1ccnc2sc3c(=O)n(-c4cccc(Br)c4)cnc3c12 [28CS] | 50 to 150 |  | 
COCCCNc1ccnc2sc3c(=O)n(-c4ccc(Br)cc4)cnc3c12 [28GR] | < 50 |  | 

SMILES | IC50 [1] [nM] | IC50 [2] [nM] | other results
Cc1ccc(-n2cnc3c(sc4nccc(N5CC[C@H](O)C5)c43)c2=O)cc1 [28CU] | > 1000 |  | 
O=c1c2sc3nccc(NCCCO)c3c2ncn1-c1ccc(F)cc1 [28GP] | < 50 |  | 
CN(C)c1ccnc2sc3c(=O)n(C4CCNCC4)cnc3c12 [15G] |  | > 1000 | 
Cc1ccc(-n2cnc3c(sc4nccc(O)c43)c2=O)cc1 [26C] |  | > 1000 | 
COCC(C)Nc1ccnc2sc3c(=O)n(-c4ccc(Br)cc4)cnc3c12 (stereo not drawn) [28HA] | 150 to 1000 |  | 
COc1ccc(-n2cnc3c(sc4nccc(NC5CC5)c43)c2=O)cc1F [28HE] | < 50 |  | 
CC(=O)c1c(C)nc2sc3c(=O)n(-c4ccccc4)cnc3c2c1-c1ccc(Cl)cc1 [P-9] |  | 150 to 1000 | 
CN(C)c1ccnc2sc3c(=O)[nH]cnc3c12 [7E] |  | > 1000 | 
CC(C)Nc1ccnc2sc3c(=O)n(C4CCCCC4)cnc3c12 [28AH] |  | 150 to 1000 | 
COCCNc1ccnc2sc3c(=O)n(-c4ccc(C)cc4)cnc3c12 [28AZ] |  | < 50 | 
CCOC(=O)CSc1nc2c(sc3nc(C)cc(C)c32)c(=O)n1-c1ccc(Cl)cc1 [P-7] |  | 150 to 1000 | 
C=C(C)CNc1ccnc2sc3c(=O)n(-c4ccc(Br)cc4)cnc3c12 [28FC] | < 50 |  | 
CNc1ccnc2sc3c(=O)n(-c4ccc5c(c4)CCO5)cnc3c12 [28BR] | < 50 |  | 
Cc1ccc(-n2cnc3c(sc4nccc(NCCCO)c43)c2=O)cc1 [28CX] | < 50 |  | 
CN(C)c1ccnc2sc3c(=O)n(C4CCCCCC4)cnc3c12 [7X] |  | < 50 | IC50 [3]: 0.68 nM
CC#Cc1ccnc2sc3c(=O)n(-c4ccc(Cl)cc4)cnc3c12 [compound 177] | > 1000 |  | 
COc1ccc(-n2cnc3c(sc4nccc(N5CC(O)C5)c43)c2=O)cc1 [28DJ] | 50 to 150 |  | 
CN(C)c1ccnc2sc3c(=O)n(-c4ccc(OC(F)(F)F)cc4)cnc3c12 [7Y] |  | < 50 | 
CC(C)Nc1ccnc2sc3c(=O)n(-c4ccc(F)cc4)cnc3c12 [28GX] | 150 to 1000 |  | 
CN(C)c1c(Cl)cnc2sc3c(=O)n(-c4ccc(Cl)cc4)cnc3c12 [compound 199] | < 50 |  | 
COc1ccc(-n2cnc3c(sc4nc(C)cc(C)c43)c2=O)cc1 [P-15] |  | 150 to 1000 | 
CCNc1ccnc2sc3c(=O)n(-c4ccncc4)cnc3c12 [28EG] | 150 to 1000 |  | 
COc1ccnc2sc3c(=O)n(-c4ccc(Cl)cc4F)cnc3c12 [28FT] | 150 to 1000 |  | 

Second part, led by results:

IC50 [1] [nM] | IC50 [2] [nM] | SMILES | other results
< 50 |  | CCNc1ncnc2sc3c(=O)n(-c4ccc5ncsc5c4)cnc3c12 [95BK] | 
 | < 50 | CCN(C)c1ncnc2sc3c(=O)n(-c4ccc(C(F)(F)F)cc4)cnc3c12 [95Y] | 
50 to 150 |  | COc1ccc(Nc2ncnc3sc4c(=O)n(-c5ccc(Cl)cc5)cnc4c23)cc1 [95GH] | 
150 to 1000 |  | COc1ncnc2sc3c(=O)n(-c4ccc(Cl)cc4)cnc3c12 [95FO] | 
 | 150 to 1000 | CN(C)c1ccnc2c1c1ncn(-c3ccc(Cl)cc3)c(=O)c1n2C [134F] | 
150 to 1000 |  | Cc1ccc(-n2cnc3c(sc4ncnc(NCc5cccs5)c43)c2=O)cc1 [95FV] | 
> 1000 |  | COCCn1cnc2c(sc3ncnc(NCC(F)(F)F)c32)c1=O [95DY] | 
 | < 50 | C=CCNc1ccnc2sc3c(=O)n(-c4ccc(C)cc4)cnc3c12 [72I] | 
150 to 1000 |  | COc1cc(-n2cnc3c(sc4nccc(NC5CC5)c43)c2=O)ccc1F [131N] | 
< 50 |  | C#CCOc1ccnc2sc3c(=O)n(-c4ccc(Br)cc4)cnc3c12 [66I] | 
< 50 |  | Cc1ccc(-n2cnc3c(sc4ncc(Br)c(N)c43)c2=O)cc1 [173A] | 
> 1000 |  | Cc1ccc(-n2cnc3c(sc4nc(N5CCCC5)nc(N)c43)c2=O)cc1 [71C] | 
 | < 50 | C#CCOc1ccnc2sc3c(=O)n(-c4ccc(C)cc4)cnc3c12 [66A] | 
> 1000 |  | O=c1c2sc3ncnc(Nc4ccccc4)c3c2ncn1-c1ccc2scnc2c1 [95GE] | 
 | < 50 | CN(C)c1ccnc2sc3c(=O)n(N4CCCCC4)cnc3c12 [60A] | 
> 1000 |  | CNc1nc(N)c2c(n1)sc1c(=O)n(-c3ccc(C)cc3)cnc12 [71B] | 
150 to 1000 |  | C#CCNc1ncnc2sc3c(=O)n(-c4ccc5sccc5c4)cnc3c12 [95EP] | 
 | 150 to 1000 | CCCCc1nc2c(sc3nccc(N(C)C)c32)c(=O)n1-c1ccc(OC)cc1 [116G] | 
> 1000 |  | CN(C)c1cccc2sc3c(=O)n(-c4ccccc4F)cnc3c12 [103L] | 
 | < 50 | CCNc1ccnc2sc3c(=O)n(-c4ccc(C)cc4)cnc3c12 [131D] | 
> 1000 |  | O=c1c2sc3ncnc(Nc4ccccc4)c3c2ncn1-c1ccc(F)cc1 [95FZ] | 
 | 50 to 150 | CCNc1ccnc2sc3c(=O)n(-c4ccc(CC)cc4)cnc3c12 [131F] | 
< 50 |  | CNc1ncnc2sc3c(=O)n(-c4ccc(OC)c(F)c4)cnc3c12 [95BF] | 
 | > 1000 | CN(C)c1ccnc2sc3c(=O)n(N)c(-c4ccccc4)nc3c12 [65E] | 
 | < 50 | CCN(C)c1ccnc2sc3c(=O)n(-c4ccc(C)cc4)c(C)nc3c12 [113I] | 
50 to 150 |  | C#CCOc1ncnc2sc3c(=O)n(-c4ccc(C)cc4)cnc3c12 [66M] | 
 | < 50 | CCNc1ccnc2sc3c(=O)n(-c4ccc(O)cc4)cnc3c12 [131B] | 
> 1000 |  | COc1ccnc2sc3c(=O)n(-c4ccc(C5CC5)cc4)cnc3c12 [137H] | 
50 to 150 |  | CN(C)c1ccnc2sc3c(=O)n(-c4ccc(C5CC5)cc4F)cnc3c12 [137F] | 
